Source: US20070128217A1 (priority 2003, published 2007)

How the values were obtained:
[1] = tested on: control sera (pooled serum of ten healthy LUMC hospital workers; commercial negative donor pooled serum from the Dutch bloodbank); assay type: binding, human; parameters: Binding of Control serum LUMC to linear peptides / Binding of Control serum Blood-bank to linear peptides / Binding of Control serum LUMC to looped peptides / Binding of Control Serum Blood-Bank to Looped peptides / Binding of Control serum LUMC to linear peptides of the protein M of SARS-CoV Urbani / Binding of Control serum Blood-bank to linear peptides of the protein M of SARS-CoV Urbani / Binding of Control serum LUMC to looped peptides of the protein M of SARS-CoV Urbani / Binding of Control Serum Blood-Bank to Looped peptides of the protein M of SARS-CoV Urbani: unit not given here
[2] = tested on: rabbit serum obtained by immunizing a rabbit with the SARS-CoV strain Frankfurt 1; assay type: binding; parameters: Binding of a rabbit serum to linear peptides / Binding of a rabbit serum to looped peptides / Rabbit serum linear peptides / Rabbit serum looped peptides / Binding of a rabbit serum to linear peptides of protein N of SARS-CoV Urbani (Rabbit serum linear peptides) / Binding of a rabbit serum to looped/cyclic peptides of protein N of SARS-CoV Urbani (Rabbit serum looped peptides): unit not given here

Sequence | Binding of Control Serum Blood-Bank to Looped peptides [1] | Binding of Control serum Blood-bank to linear peptides [1] | Binding of Control serum LUMC to linear peptides [1] | Binding of Control serum LUMC to looped peptides [1] | Binding of a rabbit serum to linear peptides [2] | Binding of a rabbit serum to looped peptides [2] | Rabbit serum linear peptides [2] | Rabbit serum looped peptides [2] | Binding of Control Serum Blood-Bank to Looped peptides of the protein M of SARS-CoV Urbani [1] | Binding of Control serum Blood-bank to linear peptides of the protein M of SARS-CoV Urbani [1] | Binding of Control serum LUMC to linear peptides of the protein M of SARS-CoV Urbani [1] | Binding of Control serum LUMC to looped peptides of the protein M of SARS-CoV Urbani [1] | Binding of Control Serum Blood-Bank to Looped peptides of the protein X3 of SARS-CoV Urbani [1] | Binding of Control serum Blood-bank to linear peptides of the protein X3 of SARS-CoV Urbani [1] | Binding of Control serum LUMC to linear peptides of the protein X3 of SARS-CoV Urbani [1] | Binding of Control serum LUMC to looped peptides of the protein X3 of SARS-CoV Urbani [1] | Recognition of the peptide by the rabbit serum [2]
QPVKIDNASPASTVH | 0.6 | 0.6 | 0.6 | 0.6 | 0.1 | 0.4 |  |  |  |  |  |  |  |  |  |  | 
RFFTLGSITAQPVKI | 0.8 | 1.0 | 1.1 | 0.7 | 1.7 | 0.5 |  |  |  |  |  |  |  |  |  |  | 
RGTTVLLKEPCPSGT | 0.9 | 0.9 | 0.8 | 0.8 |  |  | 0.4 | 0.5 |  |  |  |  |  |  |  |  | 
RMAGHPLGRCDIKDL |  |  |  |  |  |  | 0.1 | 0.6 | 0.9 | 0.7 | 0.7 | 0.8 |  |  |  |  | 
RTFRIAIWNLDVIIS |  |  |  |  |  |  | 0.3 | 0.4 |  |  |  |  | 0.9 | 0.7 | 0.6 | 0.8 | 
RWHTMVQTCTPNVTI | 0.9 | 0.9 | 0.6 | 0.9 |  |  | 0.5 | 0.6 |  |  |  |  |  |  |  |  | 
SEDRHSGVKDYVVVH | 0.5 | 1.0 | 0.8 | 0.5 | 0.1 | 0.4 |  |  |  |  |  |  |  |  |  |  | 
SGTYEGNSPFHPLAD | 0.8 | 0.8 | 0.8 | 0.8 |  |  | 0.6 | 0.6 |  |  |  |  |  |  |  |  | 
SGVANPAMDPIYDEP | 0.5 | 0.4 | 0.3 | 0.5 | 1.1 | 0.6 |  |  |  |  |  |  |  |  |  |  | 
SGVKDYVVVHGYFTE | 0.2 | 0.5 | 0.6 | 0.5 | 0.1 | 0.7 |  |  |  |  |  |  |  |  |  |  | 
SITAQPVKIDNASPA | 0.4 | 0.6 | 0.6 | 0.4 | 0.1 | 0.4 |  |  |  |  |  |  |  |  |  |  | 
SKKTTKLVVILRIGT | 0.7 | 0.6 | 0.8 | 0.7 |  |  |  |  |  |  |  |  |  |  |  |  | recognized
SRVKNLNSSEGVPDL | 0.5 | 0.9 | 0.7 | 0.7 | 0.7 | 0.0 |  |  |  |  |  |  |  |  |  |  | 
STPKLKEDYQIGGYS | 0.2 | 0.7 | 0.7 | 0.3 | 0.1 | 0.3 |  |  |  |  |  |  |  |  |  |  | 
TDHAGSNDNIALLVQ |  |  |  |  |  |  | 0.1 | 0.2 | 1.0 | 0.7 | 1.0 | 1.0 |  |  |  |  | 
TFFIFNKLVKDPPNV | 0.6 | 0.7 | 0.6 | 0.6 | 0.1 | 0.5 |  |  |  |  |  |  |  |  |  |  | 
TINCQDPAGGALIAR | 1.3 | 1.0 | 0.6 | 1.0 |  |  | 0.6 | 0.7 |  |  |  |  |  |  |  |  | 
TMVQTCTPNVTINCQ | 0.9 | 0.7 | 0.7 | 0.7 |  |  | 0.5 | 0.4 |  |  |  |  |  |  |  |  | 
TTVLLKEPCPSGTYE | 0.9 | 0.9 | 0.9 | 1.0 |  |  | 0.4 | 0.5 |  |  |  |  |  |  |  |  | 
TVLLKEPCPSGTYEG | 0.7 | 0.7 | 0.8 | 0.8 |  |  | 0.2 | 0.2 |  |  |  |  |  |  |  |  | 
VKDPPNVQIHTIDGS | 0.5 | 0.4 | 0.4 | 0.6 | 0.1 | 0.5 |  |  |  |  |  |  |  |  |  |  | 
VKIDNASPASTVHAT | 0.5 | 0.7 | 0.7 | 0.6 | 0.2 | 0.3 |  |  |  |  |  |  |  |  |  |  | 
VLKTMSLYMAISPKF | 0.7 | 0.9 | 0.5 | 0.6 | 0.3 | 0.5 |  |  |  |  |  |  |  |  |  |  | 
VRGTTVLLKEPCPSG | 0.8 | 0.8 | 1.0 | 0.9 |  |  | 0.4 | 0.4 |  |  |  |  |  |  |  |  | 
VRQLFKPLTKKNYSE |  |  |  |  |  |  | 0.4 | 2.2 |  |  |  |  | 0.9 | 0.9 | 0.7 | 0.7 | 
